The values that follow come from ChEMBL document CHEMBL3616435, “Cytotoxic cardenolides from the latex of Calotropis procera” (Bioorg Med Chem Lett, 2015).

The test system of one experiment is A549. Nature of the experiment: Cytotoxicity against human A549 cells by MTT assay. The class given is functional, cell-based. (In general: Formazan colour is commonly taken as a measure of viable cells.)
Another experiment relates to HeLa. The experiment in a line: Cytotoxicity against human HeLa cells by MTT assay. The class given is functional, cell-based.
The next experiment deals with Staphylococcus aureus. Nature of the experiment: Antimicrobial activity against methicillin-resistant Staphylococcus aureus after 16 hrs by broth microdilution method. The class given is functional. Background: Dilution methods test growth across graded concentrations, often in twofold steps.
The subject of a further experiment is Bacillus subtilis. Nature of the experiment: Antimicrobial activity against Bacillus subtilis after 16 hrs by broth microdilution method. The class given is functional.
In another experiment the test system is Escherichia coli. Nature of the experiment: Antimicrobial activity against Escherichia coli after 16 hrs by broth microdilution method. The class given is functional.
A further experiment concerns Candida albicans. Nature of the experiment: Antimicrobial activity against Candida albicans after 16 hrs by broth microdilution method. The class given is functional.

As a reminder, the IC50 is the concentration that inhibits the measured activity by half. The low end stands for greater potency, the high end for weaker potency. Usually MIC stands for the smallest concentration in the dilution series that meets the test's criterion for growth inhibition. In the case of `C[C@@H]1C[C@@H](O)[C@]2(O)O[C@@H]3C[C@@]4(C=O)[C@@H](CC[C@@H]5[C@@H]4CC[C@]4(C)[C@@H](C6=CC(=O)OC6)C[C@@H](O)[C@]54O)C[C@H]3O[C@@H]2C1`, the results for the IC50 in the experiment on A549 and in the experiment with HeLa were 0.079 µM and 0.128 µM, respectively. Besides, the minimum inhibitory concentration (MIC) in the experiment with Staphylococcus aureus, with Bacillus subtilis, with Escherichia coli and in the experiment with Candida albicans was more than 100 µg/mL in each case.

`CO[C@@H]1C[C@@H](C)C[C@H]2O[C@@H]3C[C@@H]4CC[C@@H]5[C@H](CC[C@]6(C)[C@@H](C7=CC(=O)OC7)C[C@@H](O)[C@]56O)[C@@]4(C=O)C[C@H]3O[C@@]12O`: the IC50 amounted to 0.065 µM in the experiment on A549 and 0.104 µM in the experiment with HeLa. The MIC with Staphylococcus aureus, in the experiment with Bacillus subtilis, against Escherichia coli and against Candida albicans was more than 100 µg/mL throughout.

Turning to `C[C@@H]1C[C@@H](O)[C@]2(O)O[C@@H]3C[C@@]4(C)[C@@H](CC[C@@H]5[C@@H]4CC[C@]4(C)[C@@H](C6=CC(=O)OC6)C[C@@H](O)[C@]54O)C[C@H]3O[C@@H]2C1`, the IC50 in the experiment with A549 stood at 0.347 µM; in the experiment with HeLa, 0.663 µM. For the same molecule, the MIC in the experiment on Staphylococcus aureus, with Bacillus subtilis, against Escherichia coli and in the experiment with Candida albicans was more than 100 µg/mL throughout.

`C[C@H]1C[C@H]2O[C@@H]3C[C@@H]4CC[C@@H]5[C@H](CC[C@]6(C)[C@@H](C7=CC(=O)OC7)CC[C@]56O)[C@@]4(C=O)C[C@H]3O[C@@]2(O)[C@H](O)[C@@H]1O`: the IC50 in the experiment with A549 was found to be 0.058 µM; in the experiment on HeLa, 0.087 µM. Moreover, the MIC with Staphylococcus aureus, in the experiment on Bacillus subtilis, against Escherichia coli and with Candida albicans was more than 100 µg/mL in each case.

Take `C[C@H]1C[C@H]2O[C@@H]3C[C@@H]4CC[C@@H]5[C@H](CC[C@]6(C)[C@@H](C7=CC(=O)OC7)C[C@@H](O)[C@]56O)[C@@]4(C=O)C[C@H]3O[C@@]2(O)[C@@]2(C1)N=CCS2`: the IC50 was 0.157 µM with A549 and 0.318 µM in the experiment on HeLa. Also, the MIC against Staphylococcus aureus, in the experiment with Bacillus subtilis, with Escherichia coli and in the experiment on Candida albicans was more than 100 µg/mL in each case.

In the case of `C[C@]12[C@H](O)C[C@H]3[C@@H](CC[C@H]4C[C@H](O)CC[C@@]43CO)[C@@]1(O)CC[C@@H]2C1=CC(=O)OC1`, the IC50 in the experiment on A549 turned out to be 0.604 µM; with HeLa, 1.15 µM. Besides, the minimal inhibitory concentration (MIC) in the experiment with Staphylococcus aureus, against Bacillus subtilis, against Escherichia coli and in the experiment with Candida albicans was more than 100 µg/mL in each case.

For the molecule `C[C@]12[C@H](O)C[C@H]3[C@@H](CC[C@H]4C[C@H](O)CC[C@@]43C=O)[C@@]1(O)CC[C@@H]2C1=CC(=O)OC1`, the results for the concentration for half-maximal inhibition (IC50) in the experiment on A549 and in the experiment on HeLa were 1.02 µM and 1.43 µM, respectively. The MIC in the experiment on Staphylococcus aureus, with Bacillus subtilis, against Escherichia coli and in the experiment on Candida albicans was more than 100 µg/mL each time.

As for `C[C@]12C[C@@H](O)[C@H](O)C[C@@H]1CC[C@@H]1[C@@H]2CC[C@]2(C)[C@@H](C3=CC(=O)OC3)C[C@@H](O)[C@]12O`, the IC50 in the experiment with A549 was 1.69 µM; in the experiment on HeLa, 2.47 µM. Also, the minimum inhibitory concentration (MIC) against Staphylococcus aureus, against Bacillus subtilis, with Escherichia coli and against Candida albicans was more than 100 µg/mL in each case.

`C[C@]12[C@H](O)C[C@H]3[C@@H](CC[C@H]4C[C@@H](O)CC[C@@]43CO)[C@@]1(O)CC[C@@H]2C1=CC(=O)OC1`: the results for the IC50 in the experiment on A549 and in the experiment with HeLa were 0.549 µM and 0.863 µM, respectively. Also, the MIC against Staphylococcus aureus, against Bacillus subtilis, against Escherichia coli and with Candida albicans was more than 100 µg/mL throughout.

For the molecule `C[C@@H]1C[C@@H](O)[C@]2(O)O[C@@H]3C[C@@]4(C=O)[C@@H](CC[C@@H]5[C@@H]4CC[C@]4(C)[C@@H](C6=CC(=O)OC6)CC[C@]54O)C[C@H]3O[C@@H]2O1` [CALACTIN], the MIC with Staphylococcus aureus, in the experiment with Bacillus subtilis, against Escherichia coli and against Candida albicans was more than 100 µg/mL in each case.

Consider `C[C@@H]1C[C@@]2(N=CCS2)[C@]2(O)O[C@@H]3C[C@@]4(C=O)[C@@H](CC[C@@H]5[C@@H]4CC[C@]4(C)[C@@H](C6=CC(=O)OC6)CC[C@]54O)C[C@H]3O[C@@H]2O1` [USCHARIN], for which the IC50 was 0.104 µM with A549 and 0.275 µM in the experiment with HeLa. Further, the minimum inhibitory concentration (MIC) against Staphylococcus aureus, against Bacillus subtilis, against Escherichia coli and in the experiment on Candida albicans was more than 100 µg/mL in each case.
